Entries after “also recorded” stand apart in the source; their conditions may differ.
How the values were obtained:
[1] = system: SAPK/JNK signaling downstream from IL1RI; test: SAPK/JNK signaling in IL1β stimulated NCI/ADR-RES cells, western blotting; type: cell-based; conditions: IL1β 10 ng/mL; Arg286 peptide 3.3, 16.7 and 33 μM; scrambled peptide 33 μM
Protocol: NCI/ADR-RES cells (Division of Cancer Treatment and Diagnosis, National Cancer Institute) were cultured in Dulbecco's modified Eagle's medium (Gibco) with 10% fetal bovine serum (ATCC), and 2 mM L-glutamine (ATCC) at 37° C., 5% CO2, in a humidified environment. NCI/ADR-RES cells (2×10^6 cells/well) were plated into 6-well tissue culture dishes. The following day, cells were pre-treated for 30 minutes with soluble IL1RAcP (1 μg/mL) lacking the trans-membrane domain, Arg286 peptide ([…], 3.3, 16.7 and 33 μM) (SEQ ID NO:6) and a scrambled peptide obtained by randomly shuffling Arg286 sequence ([…], 33 μM) (SEQ ID NO:7). Cells were washed with Dulbecco's modified Eagle's medium with 10% fetal bovine serum, and 2 mM glutamine and were stimulated with IL1β at 10 ng/ml for 30 min. Following incubation, cells were washed in ice-cold PBS, incubated with 100 μl of cell lysis buffer (10% Bond Breaker TCEP solution (Thermo Scientific), 45% T-PER tissue protein extraction reagent (Thermo Scientific) and 45% Novex Tris Glycine SDS sample buffer 2× (Invitrogen)), scraped, transferred to Eppendorf tubes, and heated at 100° C. for 10 minutes. Cell lysates were analyzed by western blotting.
Proteins were separated by 1-D gel electrophoresis in 4-20% Tris-Glycine gel in the presence of Tris-Glycine SDS running buffer with the following run conditions: 125 V, 90 minutes. […]

[2] = target: T1, IL1β-IL1RI-IL1RAcP complex (Homo sapiens, UniProt P01584+P14778); test: Pull-down of IL1β within the receptor complex by His-tagged IL1RAcP (immunoprecipitation); type: binding; conditions: Arg286 peptide 6.7, 3.3, 1.7, 0.8 and 0.4 μM
T1 construct: purchased Gibco (IL1β); Adipogen (IL1RI); Novoprotein (IL1RAcP)
T1 sequence (P01584 117-269, one chain of several): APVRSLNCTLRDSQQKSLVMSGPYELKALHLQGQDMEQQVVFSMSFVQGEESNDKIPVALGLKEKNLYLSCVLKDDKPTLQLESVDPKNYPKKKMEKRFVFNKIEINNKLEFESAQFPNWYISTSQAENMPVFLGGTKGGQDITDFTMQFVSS
Protocol: IL1β (0.44 μg/mL), IL1RI (2 μg/mL) and 6×His-tagged IL1RAcP (0.72 μg/mL) were incubated with Arg286 peptide (6.7, 3.3, 1.7, 0.8 and 0.4 μM) in 50 μl of PBS for one hour at room temperature under rotation. In parallel, […], IL1RI and 6×His-tagged IL1RAcP were allowed to interact without Arg286 peptide as a positive control. IL1β, and 6×His-tagged IL1RAcP were allowed to interact in absence of IL1RI as a negative control. After 1 hour, protein mixtures were incubated with magnetic beads decorated with anti-6His mouse monoclonal antibody obtained as follows. BcMag Protein G Magnetic Beads (50 μl, Bioclone) were washed 3 times with washing buffer (57.7 mM Na2HPO4, 42.3 mM NaH2PO4, pH 7.0) and incubated with anti-6×His mouse monoclonal antibody (1 μg, Abcam) for 30 minutes under rotation. Magnetic beads were separated from the supernatant with neodymium magnets, washed three times with washing buffer (57.7 mM Na2HPO4, 42.3 mM NaH2PO4, pH 7.0) and incubated with protein mixtures for one hour at room temperature under rotation. Magnetic beads were separated from the supernatant with neodymium magnets and washed three times with washing buffer (57.7 mM Na2HPO4, 42.3 mM NaH2PO4, pH 7.0). Immuno-precipitated proteins were eluted with 20 μl of 4× sample buffer (10 minutes, 70° C.). Immuno-precipitated proteins were analyzed by western blotting. […]

[3] = target: T2, IL1R1 molecule, soluble portion (Homo sapiens, UniProt P14778); test: Trypsin sites blocked by small organic molecules on folded protein, mass spectrometry; type: biochemical
T2 construct: Linear representation of IL1R1 molecule, soluble portion; purchased Adipogen
T2 sequence (P14778 21-336): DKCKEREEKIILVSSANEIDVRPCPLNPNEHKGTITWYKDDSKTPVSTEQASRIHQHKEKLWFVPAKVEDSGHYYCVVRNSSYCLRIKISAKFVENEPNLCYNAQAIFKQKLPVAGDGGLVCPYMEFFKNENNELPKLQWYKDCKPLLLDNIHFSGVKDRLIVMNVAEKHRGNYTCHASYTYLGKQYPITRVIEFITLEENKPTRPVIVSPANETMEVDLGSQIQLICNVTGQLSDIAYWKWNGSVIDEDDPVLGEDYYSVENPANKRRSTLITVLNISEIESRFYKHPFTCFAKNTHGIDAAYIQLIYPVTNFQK
Text: The binding of the small organic molecules is localized to multiple sites restricted to the surface of the protein, and excluded from internal domains of protein-protein interactions […]. […] Thus these molecules can be employed to reveal a) the inner contact domains of a single folded protein or b) the contact domains of two or more interacting proteins.
To identify functional protein-protein interaction domains, three equimolar concentrations of Interleukin ligand, its cognate receptor, and its accessory proteins were selected as a proof of concept protein complex. Interleukin 1β (IL1β, Gibco, 65 pmoles in 50 μl PBS), Interleukin 1 receptor type I (IL1RI, Adipogen, 65 pmoles in 50 μl PBS), and Interleukin 1 receptor accessory protein (IL1RAcP, Novoprotein, 65 pmoles in 50 μl PBS), were allowed to interact for one hour at room temperature under rotation. […]
As a control to identify solvent accessible surface areas, protein solutions were prepared in parallel at the same concentrations without adding paint molecules. […] Equal quantities of unbound, Interleukin 1β, IL1RI, or IL1RAcP were mixed individually with each of the four molecular paints (3 proteins×4 paints, n=12) in a 1:10 molar ratio (protein:molecular paint). […]
The solutions were immediately passed through a size sieving Sephadex column (PD MiniTrap G 25, GE Healthcare) and the flow through was collected, denatured with urea (final concentration 2M), reduced with 1 M dithiothreitol (Sigma, 15 minutes at 37° C.), alkylated with 0.5 M iodoacetamide (Sigma, 15 minutes, room temperature in the dark), and digested with trypsin (Promega) at 1:10 w/w protease/protein ratio for 2 hours at 37° C. Tryptic peptides were purified by Zip-Tip (Millipore) following manufacturer's instructions, and analyzed by reversed-phase liquid chromatography nanospray tandem mass spectrometry (LC-MS/MS) using an LTQ-Orbitrap mass spectrometer (ThermoFisher).

Compound | inhibition of SAPK/JNK signaling downstream from IL1RI [1] | inhibition of ligand pull-down / 3-protein complex formation [2] | location of blocked trypsin sites on IL1R1 [3]
HLRNISRISSITDTSETETEQ [scrambled peptide] | does not inhibit the signaling downstream from IL1RI |  | 
TINESISHSRTEDETRTQILS [Arg286 peptide] | completely blocked IL1 ligand-stimulated signaling, in a dose dependent manner; also recorded: inhibited SAPK/JNK signaling downstream from IL1RI as effectively as IL1RAcP | completely blocked IL1RAcP 3-way binding to the receptor ligand complex; also recorded: inhibition of ligand pull-down | 
O=S(=O)(O)c1cccc2cccc(Nc3ccccc3)c12 [ANSA, 8-Anilino-1-naphthalenesulfonic acid] |  |  | lay on the surface of the molecule
CCN1/C(=C/C=C/c2sc3ccccc3[n+]2CC)Sc2ccccc21 [DECI, 3,3′-Diethylthiacarbocyanine iodide] |  |  | lay on the surface of the folded molecule
CN=C1C=CC(=C(c2ccc(N(C)C)cc2)c2ccc(N(C)C)cc2)C=C1.Cl [MV, N-(4-{bis[4-(dimethylamino)phenyl]methylene}-2,5-cyclohexadien-1-ylidene)methanaminium chloride] |  |  | lay on the surface of the folded native molecule

Source: US10126304B2, “Binding domain mapping” (George Mason Research Foundation, Inc., priority 2013, dated 2018)
